From the supplement of paper PMC10307832

How the values were obtained:
Assay in all cases: relative viability (nuclei count vs DMSO), 5 days (fraction); higher = more cells survive
[1] = compound: Cn1c(Nc2ccc(C(F)(F)F)cc2)nc2cc(Oc3ccnc(-c4ncc(C(F)(F)F)[nH]4)c3)ccc21 [RAF265] + CS(=O)(=O)N1CCN(Cc2cc3nc(-c4cccc5[nH]ncc45)nc(N4CCOCC4)c3s2)CC1 [Pictilisib] (partner 1 µM)
Summary of the method: (§1)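 One day after seeding in 1536-well plates, lung cancer cell lines were dosed by pin tool. Dosing was either single-drug or a fixed anchor-drug dose plus five library-drug doses (not always all listed) in √10 steps. After 5 days, nuclei were stained in one fix-and-stain step and counted on 4× images, and relative viability is the nuclei count of treated wells over that of vehicle wells, given as the median of duplicate plates.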

[2] = compound: Cn1c(Nc2ccc(C(F)(F)F)cc2)nc2cc(Oc3ccnc(-c4ncc(C(F)(F)F)[nH]4)c3)ccc21 [RAF265] + O=C(c1cc(Cc2n[nH]c(=O)c3ccccc23)ccc1F)N1CCN(C(=O)C2CC2)CC1 [Olaparib] (partner 8 µM)
Summary of the method: as §1

[3] = compound: Cn1c(Nc2ccc(C(F)(F)F)cc2)nc2cc(Oc3ccnc(-c4ncc(C(F)(F)F)[nH]4)c3)ccc21 [RAF265] + CC(C)C[C@H](NC(=O)[C@H](Cc1ccccc1)NC(=O)c1cnccn1)B(O)O [Bortezomib] (partner 0.002 µM)
Summary of the method: as §1

[4] = compound: C1=CC=C2C(=C1)C=CC(=C2SSC3=C(C=CC4=CC=CC=C43)O)O [IPA-3] + Cc1cc(Nc2cc(N3CCN(C)CC3)nc(Sc3ccc(NC(=O)C4CC4)cc3)n2)n[nH]1 [Tozasertib] (partner 0.1 µM)
Summary of the method: as §1

Cell Line | relative viability ([1]; first compound 0.01 µM) | relative viability ([1]; first compound 0.03162 µM) | relative viability ([1]; first compound 0.1 µM) | relative viability ([1]; first compound 0.3162 µM) | relative viability ([1]; first compound 1 µM) | relative viability ([2]; first compound 0.01 µM) | relative viability ([2]; first compound 0.03162 µM) | relative viability ([2]; first compound 0.1 µM) | relative viability ([2]; first compound 0.3162 µM) | relative viability ([2]; first compound 1 µM) | relative viability ([3]; first compound 0.01 µM) | relative viability ([3]; first compound 0.03162 µM) | relative viability ([3]; first compound 0.1 µM) | relative viability ([3]; first compound 0.3162 µM) | relative viability ([3]; first compound 1 µM) | relative viability ([4]; first compound 0.2 µM) | relative viability ([4]; first compound 0.6325 µM) | relative viability ([4]; first compound 2 µM) | relative viability ([4]; first compound 6.325 µM) | relative viability ([4]; first compound 20 µM)
COR-L23 | 0.874 | 0.663 | 0.626 | 0.368 | 0.323 | 0.395 | 0.329 | 0.305 | 0.307 | 0.184 | 1.05 | 0.87 | 0.964 | 0.706 | 0.511 | 0.197 | 0.201 | 0.344 | 0.25 | 0.165
EMC-BAC-2 | 0.494 | 0.513 | 0.496 | 0.386 | 0.228 | 0.576 | 0.43 | 0.407 | 0.371 | 0.167 | 1.07 | 1 | 1.08 | 1.05 | 0.351 | 0.279 | 0.296 | 0.312 | 0.303 | 0.269
LCLC-103H | 0.616 | 0.615 | 0.638 | 0.431 | 0.422 | 0.759 | 0.717 | 0.75 | 0.595 | 0.444 | 1.02 | 1.07 | 0.994 | 1 | 0.627 | 0.582 | 0.528 | 0.577 | 0.443 | 0.539
SW 1573 | 0.597 | 0.445 | 0.542 | 0.399 | 0.221 | 0.474 | 0.388 | 0.304 | 0.28 | 0.248 | 1.38 | 0.91 | 1.17 | 0.873 | 0.514 | 0.16 | 0.23 | 0.222 | 0.155 | 0.136
NCI-H2405 | 0.529 | 0.473 | 0.397 | 0.368 | 0.231 | 0.96 | 0.88 | 0.834 | 0.838 | 0.514 | 0.985 | 0.898 | 0.995 | 0.975 | 0.422 | 0.796 | 0.755 | 0.727 | 0.748 | 0.774
NCI-H2087 | 0.96 | 0.907 | 0.884 | 0.46 | 0.372 | 0.757 | 0.496 | 0.64 | 0.334 | 0.373 | 0.772 | 0.718 | 0.804 | 0.621 | 0.714 | 0.273 | 0.349 | 0.274 | 0.221 | 0.253
NCI-H460 | 0.5 | 0.455 | 0.403 | 0.201 | 0.179 | 0.444 | 0.426 | 0.491 | 0.411 | 0.28 | 1.15 | 1.22 | 1.09 |  | 0.742 | 0.464 | 0.462 | 0.727 | 0.516 | 0.453
LOU-NH91 | 0.529 | 0.487 | 0.495 | 0.481 | 0.474 | 1.02 | 0.831 | 0.9 | 0.675 | 0.737 | 0.542 | 0.465 | 0.521 | 0.596 | 0.521 | 0.649 | 0.669 | 0.649 | 0.656 | 0.742
NCI-H1651 | 0.523 | 0.539 | 0.433 | 0.397 | 0.463 | 0.187 | 0.17 | 0.194 | 0.185 | 0.167 | 0.981 | 0.978 | 0.974 | 0.897 | 0.932 | 0.727 | 0.613 | 0.883 | 0.708 | 0.691
NCI-H441 | 0.572 | 0.466 | 0.304 | 0.261 | 0.206 | 0.555 | 0.512 | 0.539 | 0.445 | 0.394 | 0.446 |  | 0.499 | 0.362 | 0.207 | 0.738 | 0.596 | 0.739 | 0.739 | 0.524
